# Reference: US6927401B1, “Method of characterizing fluorescent molecules or other particles using generating functions” (Evotec OAI AG, priority 1999, dated 2005)
# What was measured:
# [1] = system: monoclonal antibody exposed on the surface of hybridoma cell line HB-8152
# Description: The cell number of a confluent hybridoma culture was determined to be 1.6×10^6 per ml and aliquotes with approx. 0.5×10^6 hybridoma cells in 100 μl were used for each single experiment. The cells were washed in 100 μl phosphate buffered saline (PBS) buffer for 5 minutes to remove soluble antibody from the assay. Subsequently, the cells were incubated for 30 minutes in 100 μl PBS containing the theophylline-TAMRA conjugate at different concentrations: 0, 0.4, 2, 8, 16, 40, 200, 800 nM. […] The degree of fluorescence labelling of the hybridoma cells was determined for each single experiment in four independent measurements.
# EGF receptor = molecular target: T1, EGF receptor (Homo sapiens, UniProt P00533); assay: FIDA competition assay, HCT membranes with TMR-EGF and competitor; settings: binding normalized to absence of competitor, read-out: affinity (competition with TMR-EGF)
# T1 construct: endogenous in cells; host or cells: HCT (human colon carcinoma tumor) cells, crude membranes
# Description: Binding was determined by the method according to the present invention and was normalized to that in the absence of competitor.
Molecule,IC50 [1],Ki (EGF receptor)
"Cn1c(=O)c2[nH]cnc2n(C)c1=O [theophylline, 1,3-dimethylxanthine]",250 nM,–
"betacellulin: polypeptide growth factor with sequence identity with EGF, from R & D Systems",–,0.23 ± 0.02 nM
